Measurements reported in US5922730A, “Alkylated rapamycin derivatives” (American Home Products Corporation, priority 1998, dated 1999).
“And” between values parts separate entries of the source, which are not always exact repeats. Equal values may be shown once.

Key:
[1] = system: pinch skin graft from male DBA/2 donors transplanted to male BALB/c recipients; test: pinch skin graft survival; type: in vivo; conditions: intraperitoneal
Experimental: (§1) Immunosuppressive activity was evaluated in an in vitro standard pharmacological test procedure to measure lymphocyte proliferation (LAF), in an in vivo procedure to evaluate the survival time of a pinch skin graft, and in an in vivo procedure to determine inhibition of T-cell mediated inflammatory response (adjuvant arthritis).
The in vivo test procedure is designed to determine the survival time of pinch skin graft from male DBA/2 donors transplanted to male BALB/c recipients. The method is adapted from Brllingham R. E. and Medawar P. B., J. Exp. Biol. 28:385-402, (1951). Briefly, a pinch skin graft from the donor is grafted on the dorsum of the recipient as a homograft, and an autograft is used as control in the same region. […] Untreated recipients serve as rejection control. The graft is monitored daily and observations are recorded until the graft becomes dry and forms a blackened scab. This is considered as the rjection day. The mean graft survival time (MST -number of days±S.D.) of the drug treatment group is compared with the control group. Rapamycin treatment provides a mean graft survival (MST) of is 12.0±1.7 days.

[2] = system: thymocyte proliferation (cells from the thymus, PHA and IL-1); test: comitogen-induced thymocyte proliferation procedure (LAF); type: cell-based, BALB/c mice
Experimental: Briefly, cells from the thymus of normal BAUI/c mioe are cultured for 72 hours with PHA and IL-1 and pulsed with tritiated thymidine during the last six hours. […] Cells are harvested and incorporated; radioactivity is determined. Inhibition of lymphoproliferation is assessed in percent change in counts per minute from nondrug treated controls.

[3] = system: Freund's Complete Adjuvant (FCA) induced arthritis; test: adjuvant arthritis standard pharmacological test procedure; type: in vivo, rats (male inbred Wistar Lewis)
Experimental: as §1
The in vivo adjuvant arthritis standard pharmacological test procedure measures the abilty of test compounds to prevent immune mediated inflammation and inhibit or treat rheumatoid arthritis. The following briefly describes the test procedure used. A group of rats (male inbred Wistar Lewis rats) are pre-treated with the compound to be tested (1 h prior to antigen) and then injected with Freund's Complete Adjuvant (FCA) in the right hind paw to induce arthritis. The rats are then orally dosed on a Monday, Wednesday, Friday schedule from day 0-14 for a total of 7 doses. Both hind paws are measured on days 16, 23 and 30. The difference in paw volume (mL) from day 16 to day 0 is determined and a percent change from control is obtained. The left hind paw (uninjected paw) inflammation is caused by T-cell mediated inflammation and is recorded as percent change from control. The right hind paw inflammation, on the other hand, is caused by non-specific inflammation. Compounds were tested at a dose of 2 mg/kg.

[4] = system: ovarian (A 2780S) cancer cell line; test: inhibition of growth of human tumor cells in vitro (Sulforhodaine B); type: cell-based; conditions: 48 hours exposure
Experimental: (§2) Human tumor cell lines were plated in 96-well plates (250 μL well, 1-6×10^4 cells/mL) in RPMI 1640 medium, containing 5% FBS (Petal Bovine Serum). Twenty-four hours after plating, drugs were added at five log concentrations (0.01-100 μg/mL). After 48 hours exposure to drugs, cells were fixed with trichloroacteic acid, and stained with Sulforhodaine B. After washing with trichloroacetic acid, bound dye was solubilized in 10 mM Tris base and Optical Density was determined using a plate reader. Under conditions of the assay, the optical density is proportional to the number of cells in the well. IC50 s (concentrations causing 50% inhibition of cell growth) were determined from the growth inhibition plots. The assay is described in details by Philip Skehan et al., J. National Cancer Institute 82, 1107-1112, 1990.

[5] = system: colon (MIP 101) cancer cell line; test: as above; type: cell-based; conditions: MIP 101, 48 hours exposure
Experimental: as §2

[6] = system: breast (T47D) cancer cell line; test: as above; type: cell-based; conditions: 48 hours exposure
Experimental: as §2

[7] = system: Candida albicans; conditions: particularly against Candida albicans, in vitro and in vivo; cited from earlier work
[8] = system: experimental allergic encephalomyelitis model; conditions: model for multiple sclerosis; cited from earlier work
[9] = system: formation of IgE-like antibodies; conditions: in vivo; cited from earlier work

29-O-Benzylrapamycin [Example 1]
Skin Graft MST ± S.D. (mean graft survival time) [1]: 7.2 days | IC50 ([2]; LAF, PHA and IL-1, 72 hours, read-out: IC50 analog): 4.2 nM | R/A (ratio of the ID50s of rapamycin to the analog) ([2]; ratio less than 1.0 means the analog is less potent than rapamycin): 0.12

COCCOCCOCCO[C@@H]1CC[C@@H](C[C@@H](C)[C@@H]2CC(=O)[C@H](C)/C=C(\C)[C@@H](O)[C@@H](OC)C(=O)[C@H](C)C[C@H](C)/C=C/C=C/C=C(\C)[C@@H](OC)C[C@@H]3CC[C@@H](C)[C@@](O)(O3)C(=O)C(=O)N3CCCC[C@H]3C(=O)O2)C[C@H]1OC [Example 3, 42-O-(2-[2-(2-methoxyethoxy)-ethoxy]-ethyl)-rapamycin]
Skin Graft MST ± S.D. (mean graft survival time) [1]: 9.8 days and 9.7 days | Adjuvant Arthritis % Change (uninjected paw at day 16 versus control) ([3]; 2 mg/kg, oral, more negative = more potent): -88% | inhibition of cancer cell line growth [4]: submicromolar concentrations | inhibition of cancer cell line growth [5]: submicromolar concentrations | inhibition of cancer cell line growth [6]: submicromolar concentrations

CO[C@H]1C[C@@H]2CC[C@@H](C)[C@@](O)(O2)C(=O)C(=O)N2CCCC[C@H]2C(=O)O[C@H]([C@H](C)C[C@@H]2CC[C@@H](O)[C@H](OC)C2)CC(=O)[C@H](C)/C=C(\C)[C@@H](O)[C@@H](OC)C(=O)[C@H](C)C[C@H](C)/C=C/C=C/C=C/1C [rapamycin]
antifungal activity [7]: antifungal activity | Skin Graft MST ± S.D. (mean graft survival time) [1]: 12.0 ± 1.7 days | immune-induced inflammation less than control rats ([3]; rapamycin treated rats versus control rats): 70-90% | effect in experimental allergic encephalomyelitis model [8]: effective | inhibition of formation of IgE-like antibodies [9]: effectively inhibited
